One assay deals with HFD-induced obese mice. As to the kind of experiment: Chronic GIP108 administration to HFD-induced obese mice. The assay is classed as in vivo, mouse. Particulars: for body weight / food intake: n = 9–10/group. The method, then:
In all in vivo studies, mice were randomised by body weight into groups. Mice received a 50 μL subcutaneous injection of saline (0.9% sodium chloride) or peptide at a specified dose, diluted in saline. Peptide dosing was in nmol per kg of total body weight. For the assessment of the chronic effects of GIP108, mice were injected daily for 15 days. Body composition was measured by EchoMRI on day −1 and day 15. An intraperitoneal glucose tolerance test (IPGTT) (2 g/kg) was conducted on day 14, following 6 h of fasting and 2 h after peptide injection. Non-fasting plasma leptin (ab199082, Abcam, UK), adiponectin (ab226900, Abcam, UK) and amino acids (ab65347, Abcam, UK) were measured on day 16. For the assessments of in vivo GIPR desensitisation, mice were injected at 17:00 with vehicle or GIP108 (30 nmol/kg) prior to an acute food intake study/IPGTT/insulin bleeds conducted the following day. Full details of the in vivo studies are provided in the supplementary methods.
HFD-induced obese mice (mean starting weight of 43.4 g) received daily injection of saline, GIP108 (30 nmol/kg) and GIP108 (100 nmol/kg) (n=9-10/group) for 15 days. Mice were injected between 16:00 and 17:00, before the beginning of the natural feeding period. Food intake and body weight were measured daily for the entirety of the study. Fat mass and lean mass were calculated on day -1 and day 15. An intraperitoneal glucose tolerance test (IPGTT) was conducted on day 14. On this day, mice received their daily injection of peptide at midday rather than between 16:00 and 17:00. The mice were culled on day 16 via decapitation to allow for collection of large volumes of blood for plasma analysis.
Mice were fasted at 08:00. For all studies, 20% glucose was administered at 14:00, with the injection volume adjusted to the body weight of the mouse such that each mouse received glucose at 2 g/kg. To assess effects of GIP108 on day 14 of the chronic study, mice were dosed with saline or GIP108 at a specified dose at 12:00. […] Blood glucose measurements were taken via tail vein venesection at baseline, t=15, t=30, t=60, t=90 and t=120 mins. Glucose AUC is calculated using y=0. Glucose readings were measured in mmol/L using the same GlucoRx glucometer.
Body composition was measured using an EchoMRI^TM machine. This allows for the measurement of lean mass, fat mass and water mass. The mass was recorded in grams. Mice were restrained in a red Perspex tube which was then inserted into the EchoMRI^TM machine. Each scan took 160 seconds. The tube was cleaned between animals to minimise stress.
Leptin, adiponectin and amino acids were quantified following chronic GIP108 administration. Plasma amino acids were measured using the Abcam L-amino acid assay kit (ab65347, Abcam, UK). Plasma adiponectin was measured using the Abcam mouse adiponectin ELISA kit (ab226900, Abcam, UK). Plasma leptin was measured using the Abcam mouse leptin ELISA kit (ab199082, Abcam, UK). All assays were performed according to the manufacturer’s protocol and were read using the SpectraMax i3x Microplate Reader (Molecular Devices, US).

Another assay has as its target T1, SNAP-tagged mouse GLP-1R (Mus musculus, UniProt O35659).
T1 construct: host or cells: AD-293
T1 sequence (O35659 22-463): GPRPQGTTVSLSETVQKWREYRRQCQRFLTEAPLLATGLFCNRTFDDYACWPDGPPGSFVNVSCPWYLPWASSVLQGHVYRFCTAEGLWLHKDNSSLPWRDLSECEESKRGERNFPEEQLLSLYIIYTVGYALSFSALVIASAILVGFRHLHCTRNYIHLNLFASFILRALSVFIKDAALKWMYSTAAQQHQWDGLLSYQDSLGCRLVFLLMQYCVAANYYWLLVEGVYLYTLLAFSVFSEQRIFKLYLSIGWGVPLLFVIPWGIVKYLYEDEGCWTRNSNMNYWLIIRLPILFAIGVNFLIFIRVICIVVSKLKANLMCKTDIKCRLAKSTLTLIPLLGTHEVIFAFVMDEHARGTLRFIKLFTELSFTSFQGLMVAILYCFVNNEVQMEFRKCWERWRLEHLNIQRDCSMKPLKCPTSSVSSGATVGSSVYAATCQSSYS
As to the kind of experiment: Internalisation and receptor surface expression assays in AD-293 cells. The format is cell-based. Particulars: 10 nM. The method, then:
AD-293 cells were transfected with desired plasmid DNA encoding a SNAP-tagged G-protein coupled receptor (GPCR) 24 h prior to assay. For 1 h internalisation assays, cells were labelled for 10 min with cleavable SNAP-tag probe BG-S-S-649 (New England BioLabs, US). Following 1 h treatment with specified peptide, cells were imaged at baseline and after addition of 2-mercaptoethane sulfonate (Mesna). For 4-hour GPCR surface expression assays, cells were treated with the specified peptide for 4 h, prior to 10-minute labelling with BG-S-S-649 and imaging. Full details are provided in the supplementary methods.
AD-293 cells were added to a 96-well plate and maintained in 200 μl complete DMEM. 150 ng of mouse or human SNAP-tagged plasmid GIPR DNA, or 100 ng of mouse or human SNAP-tagged plasmid GLP-1R DNA was added to each well alongside Lipofectamine 2000 (Thermo Fisher, UK) and left for 24 hours.
For 1 hour internalisation assays, cells were labelled with cleavable SNAP-tag probe BG-S-S-649 (New England BioLabs, US) in complete DMEM for 10 minutes prior to washing and 1 hour treatment with specified peptide, reconstituted in DMEM + 0.1% BSA. […] GPCR internalisation was quantified as the cell fluorescence following Mesna addition (representing internalised GPCR), corrected for the baseline cell fluorescence (representing total cellular GPCR). […]

[1] abbreviates: 30 nmol/kg daily s.c. over two weeks.
[2] abbreviates: 100 nmol/kg daily s.c. over two weeks, EchoMRI.
Where [3] appears, read: 100 nmol/kg daily s.c. over two weeks.
The mark [4] stands for this setting: 30 or 100 nmol/kg daily s.c., fed state 16 h after last injection.

Turning to `CC[C@H](C)[C@H](NC(=O)[C@H](CO)NC(=O)[C@H](Cc1ccc(O)cc1)NC(=O)[C@H](CC(=O)O)NC(=O)[C@H](CO)NC(=O)[C@@H](NC(=O)[C@H](Cc1ccccc1)NC(=O)[C@@H](NC(=O)CNC(=O)[C@H](CCC(=O)O)NC(=O)C(C)(C)NC(=O)[C@@H](N)Cc1ccc(O)cc1)[C@@H](C)O)[C@@H](C)CC)C(=O)N[C@@H](C)C(=O)N[C@@H](CC(C)C)C(=O)N[C@@H](CC(=O)O)C(=O)N[C@@H](CCCCN)C(=O)N[C@H](C(=O)N[C@@H](Cc1c[nH]cn1)C(=O)N[C@@H](CCC(N)=O)C(=O)N[C@@H](CCC(N)=O)C(=O)N[C@@H](CC(=O)O)C(=O)N[C@@H](Cc1ccccc1)C(=O)N[C@H](C(=O)N[C@@H](CC(N)=O)C(=O)N[C@@H](Cc1c[nH]c2ccccc12)C(=O)N[C@@H](CC(C)C)C(=O)N[C@@H](CC(C)C)C(=O)N[C@@H](C)C(=O)N[C@@H](CCC(N)=O)C(=O)N[C@@H](CCCCN)C(=O)NCC(=O)N[C@@H](CCCCNC(=O)CC[C@H](NC(=O)CCCCCCCCCCCCCCCCCCC(=O)O)C(=O)O)C(=O)N[C@@H](CCCCN)C(=O)N[C@@H](CC(N)=O)C(=O)N[C@@H](CC(=O)O)C(=O)N[C@@H](Cc1c[nH]c2ccccc12)C(=O)N[C@@H](CCCCN)C(=O)N[C@@H](Cc1c[nH]cn1)C(=O)N[C@@H](CC(N)=O)C(=O)N[C@H](C(=O)N[C@H](C(=O)N[C@@H](CCC(N)=O)C(=O)O)[C@@H](C)O)[C@@H](C)CC)C(C)C)[C@@H](C)CC` [GIP108], the fat mass result in the assay on HFD-induced obese mice (30 nmol/kg daily s.c. over two weeks, EchoMRI) was “not 30 nmol/kg”. Besides, in the assay on HFD-induced obese mice (setting [1]), the body weight result is listed as “had no effect on body weight” and the food intake entry is “not 30 nmol/kg”. Besides, in the assay on HFD-induced obese mice (setting [2]), the fat mass result is on record as “significantly lowered” and the lean mass entry is given as “without reductions in lean mass”. Besides, in the assay on HFD-induced obese mice (setting [3]), the body weight result was “significantly lowered” and the food intake result was “significantly lowered”. In addition, in the assay on HFD-induced obese mice (30 and 100 nmol/kg daily s.c., IPGTT 2 g/kg on day 14, 2 h after injection), the intraperitoneal glucose tolerance result is listed as “dose-dependent improvement”. Moreover, in the assay with HFD-induced obese mice (30 and 100 nmol/kg daily s.c., day 14, 2 h after injection), the fasting glucose result is on record as “dose-dependent improvement”. For the same molecule, in the assay with HFD-induced obese mice (setting [4]), the plasma adiponectin entry is listed as “increased plasma adiponectin”, the “plasma amino acid levels” value was “had no impact” and the plasma leptin result is on record as “reduced plasma leptin”.
Turning to GLP-1(7–36)·NH2, on SNAP-tagged mouse GLP-1R (1-hour treatment, n = 3–4), the “receptor internalisation compared to vehicle” value was “significantly increased both mouse and human GLP-1R internalisation”. Moreover, the “receptor internalisation (surface expression) compared to vehicle” value at SNAP-tagged mouse GLP-1R (4-hours treatment, n = 7–8) is “significantly increased both mouse and human GLP-1R internalisation”.

For the origin of these results see PMC11786100, “Chronic GIPR agonism results in pancreatic islet GIPR functional desensitisation” (Molecular Metabolism, 2025).
